{"source": "patent US8822440B2", "about": "“Inhibiting cyclin D polypeptides” (Mayo Foundation for Medical Education and Research, priority 2006, dated 2014)", "key": {"H929 and U266 HMCL": {"system": "H929 and U266 HMCL", "assay": "Gene expression profiling (Affymetrix) of H929 and U266", "type": "cell-based, human", "settings": "5 μM, 4 hours", "description": "Gene expression profiling. H929 and U266 HMCL were treated with kinetin riboside (5 μM), an unrelated cytotoxic pristimerin (0.5 μM), or DMSO vehicle for 4 hours under normal culture conditions. RNA was then isolated using Trizol and further purified by Qiagen column, according to the manufacturer's instructions and was assessed using a BioAnalyzer 2100 (Agilent Technologies, Palo Alto, Calif.). Microarray hybridization using Affymetrix Hg_U133—2+ chips (Affymetrix, Santa Clara, Calif.) was performed as described elsewhere (Abraham et al., Blood 105, 794-803 (2005)). Gene expression intensity values were log transformed, normalized by chip and by cell line to DMSO-control treated samples and analyzed using GeneSpring 7 (Agilent Technologies, Palo Alto, Calif.). Expression values were filtered by raw intensity level to exclude non-expressed probe-sets with raw expression within one log (10) of the minimum level observed. Only probe sets with sub-threshold intensities in all samples (treated and untreated) were excluded.\nAnalysis of CREM gene variant transcript expression. […]"}, "Aqueous solubility": {"assay": "Aqueous solubility", "type": "physicochemical"}, "HMCL": {"system": "HMCL", "assay": "Cell cycle profiling of HMCL by flow cytometry", "type": "cell-based, human", "description": "Cell cycle profiling. HMCL were incubated with drug or vehicle as indicated, washed and resuspended in 1 mL PBS. Ice cold ethanol was added dropwise to 75% with regular mixing, and suspensions were incubated at −20° C. for 1 hour. Cells were washed again with PBS and resuspended in 0.1 mL RNAse A (100 μg/mL) at room temperature for 5-10 minutes. Propidium iodide (200 μL×100 μg/mL) was added immediately prior to analysis by flow cytometry. Cellular aggregates were excluded using CellQuest Doublet Discriminator Module, and cell cycle profile was determined using ModFit LT Mac 3.1 SP2 (Verity Software House, TopSham, Me.)."}, "[1]": {"settings": "mouse, in vivo", "description": "Kinetin riboside toxicity in mice. In vivo toxicity studies of synthetic kinetin riboside were initiated in balc/c mice. […] The actual volume of distribution and the half-life of kinetin riboside in vivo are at present unknown and future schedules of administration may require adjustment to account for these."}, "cyclin D1, cyclin D2": {"system": "cyclin D1, cyclin D2", "assay": "Immunoblot of cyclin D proteins in purified patient CD138+ myeloma cells", "type": "cell-based, human", "description": "Primary CD138^+ myeloma cell purification. Samples from patients diagnosed by International Myeloma Working Group criteria were included in this study. Bone marrow processing, including red cell lysis using ammonium chloride and CD138^+ plasma cell purification, was performed as described elsewhere (Abraham et al., Blood, 105, 794-803 (2005)). Research BM samples were obtained following informed consent at the time of routine procurement of clinical samples.\nImmunoblotting. Cytosolic extracts were prepared from HMCL or purified patient CD138^+ myeloma cells following exposure to kinetin riboside. Cells were washed with cold PBS, resuspended in cold RIPA buffer (5×10^6 cells/100 μL) containing fresh protease and phosphatase inhibitors (Santa Cruz Biotechnology, Santa Cruz, Calif.) and incubated on ice for 30 minutes with gentle mixing. The supernatant was repossessed following high speed centrifugation, and protein concentrations were determined by the Bradford assay. Immunoblot assays were performed as described elsewhere (Krajewski et al., Anal. Biochem., 236:221-228 (1996)). Briefly, equal amounts of protein were separated by SDS-PAGE and transferred to a PVDF nitrocellulose membrane using a semi-dry apparatus. […]"}, "CD138+ myeloma cells": {"system": "CD138+ myeloma cells", "assay": "Unsorted myeloma patient bone marrow, flow cytometry: CD138+ myeloma cells", "type": "cell-based, human", "description": "Flow cytometry. HMCL were treated as indicated and then washed in cold phosphate-buffered saline (PBS) and resuspended in buffer containing AnnexinV-FITC and propidium iodide (BD Biosciences, San Jose, Calif.) for 15 minutes at room temperature. Cells (10^5) were subsequently diluted and analyzed immediately by flow cytometry (FACScan, BD Biosciences, San Jose, Calif.) using CellQuest software. Patient bone marrow specimens were prepared and analyzed in a similar fashion using AnnexinV-FITC and anti-CD138-PE (BD Biosciences, San Jose, Calif.).\nAs mouse embryos that lack any D-cyclins eventually die from hematopoietic failure (Kozar et al., Cell, 118, 477-91 (2004)), the bone marrow might be predicted to be one of the most sensitive non-malignant tissue to be affected by drugs targeting cyclin D expression. Unsorted bone marrow samples from myeloma patients were treated with kinetin riboside to assess the relative cytotoxicity of this drug on malignant versus non-malignant marrow cells. Bone marrow samples were first processed to remove non-nucleated red cells and were then treated for 48 hours with kinetin riboside (5 μM)."}}, "note": "Read-outs that look alike come from different tables or passages of the source.", "data": [{"smiles": "OC[C@H]1O[C@@H](n2cnc3c(NCc4ccco4)ncnc32)[C@H](O)[C@@H]1O", "note": "[kinetin riboside, N6-Furfuryladenosine]", "values": [{"measurement": "CREM isoform expression", "setting": "H929 and U266 HMCL", "value": "preferential induction of CREM isoforms"}, {"measurement": "number of genes with 3-fold or greater change in expression in both H929 and U266", "setting": "H929 and U266 HMCL", "value": "approximately 35 genes"}, {"measurement": "aqueous solubility", "setting": "Aqueous solubility", "value": "limited aqueous solubility at high concentration"}, {"measurement": "cell cycle profile", "setting": "HMCL; H929 and U266, 10 μM, 20 hours", "value": "cell cycle arrest at G0/G1"}, {"measurement": "fall in proportion of cells entering S-phase", "setting": "HMCL; all HMCL tested, 10 μM, within 20 hours", "value": "50-70%"}, {"measurement": "final concentration equated from a dose of 25 mg/kg", "setting": "[1]; BALB/c (printed as \"balc/c\"), 25 mg/kg", "value": "about 60 μM"}, {"measurement": "duration of hypoactivity after treatment", "setting": "[1]; BALB/c", "value": "15 to 30", "unit": "min"}, {"measurement": "maximum tolerated single dose (MTDs)", "setting": "[1]; BALB/c, ip", "value": "~100", "unit": "mg/kg"}, {"measurement": "maximum tolerated single dose (MTDs)", "setting": "[1]; BALB/c, iv", "value": "about 25 mg/kg"}, {"measurement": "tolerability of multi-dose regimen", "setting": "[1]", "value": "well tolerated"}, {"measurement": "patient samples with suppression of cyclin D1 or D2", "setting": "cyclin D1, cyclin D2; 10 μM, 16 hours", "value": "4 of 5"}, {"measurement": "cyclin D1 and D2 levels in sample E (plasma cell leukemia)", "setting": "cyclin D1, cyclin D2; patient E", "value": "unaffected"}, {"measurement": "kill of patient CD138+ myeloma cells", "setting": "CD138+ myeloma cells; 5 μM, 48 hours", "value": 92, "unit": "%"}, {"measurement": "effect on primary CD138+ myeloma cells", "setting": "CD138+ myeloma cells; patient bone marrow, 48 hours", "value": "most CD138+ cells become apoptotic"}, {"measurement": "activity against CD138+ myeloma cells compared with non malignant hematopoietic cells", "setting": "CD138+ myeloma cells; unsorted myeloma patient bone marrow samples", "value": "selective activity"}]}]}
